Measured values published in patent US7915393B2 (Corixa Corporation, priority 2001, dated 2011).
Marks after values point to notes of the source that are not given here.

What was measured:
CD4 cells of splenocytes = experiment: Intracellular interferon-gamma staining of CD4 cells (FACS) after immunization with WT-1 protein constructs; assay type: in vivo; conditions: C57BL/6 mice
Procedure: Groups of four C57BL/6 mice were immunized subcutaneously with 20 μg WT-1 proteins: WT-1-F or WT-1 full length (FL), with Ra12, HIS or TAT fusions. Immunizations were performed at weeks 0, 3 and 9, and spleens were harvested at week 11. Splenocytes were then stimulated in vitro for 6 hours with medium alone, with a 15-mer peptide “p32” ([…], amino acids 125-139 of WT-1; found within the p117-139 peptide set forth in SEQ ID NO:2), with the DC2.4-WT-1/LAMP cell line, or with rRa12. CD4 cells were then stained for intracellular interferon-gamma and quantified by FACS analysis. A portion of these splenocytes were then stimulated in vitro for 8 days, after which CD4+ IFN+ cells were enumerated. After the 6 hour stimulation with p32, 0.33% of CD4-positive cells were positive for intracellular IFN-gamma staining in mice immunized with the truncated N-terminal construct rWT1-F-TAT. By contrast, only 0.10% of CD4-positive cells stained positive for intracellular IFN-gamma in mice immunized with rWT1-FL-TAT. […] By contrast, 0.24% of CD4-positive cells from mice immunized with the full-length WT1-TAT construct stained positive for intracellular IFN-gamma.

[1] = system: targets incubated with WT1 peptides (EL-4) and WT1 positive tumor cells (TRAMP-C, BLK-SV40); experiment: CTL from mice immunized with WT1 peptides, chromium release assay; assay type: in vivo, B6 mice; conditions: for generation of peptide specific CTL following immunization: spleen cells stimulated in vitro with peptide; for generation of peptide specific CTL following immunization / lysis of WT1 positive tumor cells by peptide specific CTL: chromium release; for lysis of WT1 positive tumor cells by peptide specific CTL: WT1 positive tumor cell lines (TRAMP-C, BLK-SV40)
Procedure: CTL were evaluated with a standard chromium release assay (Chen et al., Cancer Res. 54:1065-1070, 1994). 10^6 target cells were incubated at 37° C. with 150 μCi of sodium ^51Cr for 90 minutes, in the presence or absence of specific peptides. Cells were washed three times and resuspended in RPMI with 5% fetal bovine serum. For the assay, 10^4 51Cr-labeled target cells were incubated with different concentrations of effector cells in a final volume of 200 μl in U-bottomed 96-well plates. Supernatants were removed after 4 to 7 hours at 37° C., and the percentage specific lysis was determined by the formula: % specific lysis=100×(experimental release−spontaneous release)/(maximum release−spontaneous release).
P117-139, a peptide with motifs appropriate for binding to class I and class II MHC, was identified as described above using TSITES and BIMAS HLA peptide binding prediction analyses. Mice were immunized as described in Example 3. […] CTL were evaluated with a standard chromium release assay.

[2] = system: WT1 specific CD8+ T-cell clone; experiment: IFN-γ ELISPOT recognition by human WT1 specific CD8+ T-cell clone (whole gene priming); assay type: cell-based; conditions: HLA-A2 restricted clone
[3] = system: WT1-specific CD8+ T cell clone and T cell line; experiment: HLA-A2 peptide-MHC tetramer staining of WT1 specific T cells (flow cytometry); assay type: cell-based, human
[4] = system: T cells of immunized B6 mice; experiment: Proliferative T cell responses of immunized mice, thymidine incorporation assay; assay type: in vivo; conditions: for stimulation index (SI), proliferative T cell response: mice immunized with WT1 peptides, thymidine incorporation (FIGS. 5A-5C)
Procedure: Peptides were dissolved in 1 ml sterile water for injection, and B6 mice were immunized 3 times at time intervals of three weeks. Adjuvants used were CFA/IFA, GM-CSF, and MONTANIDE®. […] In particular, lymphocytes were cultured in 96-well plates at 2×10^5 cells per well with 4×10^5 irradiated (3000 rads) syngeneic spleen cells and the designated peptide.

[5] = system: DC2.4 A2/Kb cells pulsed with peptides; experiment: Identification of CTL epitope: chromium release with peptide pulsed DC2.4 A2/Kb cells; assay type: in vivo; conditions: HLA-A2/Kb transgenic mice
[6] = system: mouse B6 class I antigens (D^b or K^b molecules on the surface of RMA-S cells); experiment: Peptide binding to C57Bl/6 murine class I MHC using RMA-S cells (flow cytometry); assay type: cell-based; conditions: 9-mer peptides within p117-139
Procedure: In brief, RMA-S cells were cultured for 7 hours at 26° C. in complete medium supplemented with 1% FCS. A total of 10^6 RMA-S cells were added into each well of a 24-well plate and incubated either alone or with the designated peptide (25 ug/ml) for 16 hours at 26° C. and additional 3 hours at 37° C. in complete medium. Cells were then washed three times and stained with fluorescein isothiocyanate-conjugated anti D^b or anti-K^b antibody (PharMingen, San Diego, Calif.). Labeled cells were washed twice, resuspended and fixed in 500 ul of PBS with 1% paraformaldehyde and analyzed for fluorescence intensity in a flow cytometer (Becton-Dickinson FACSCALIBUR™). The percentage of increase of D^b or K^b molecules on the surface of the RMA-S cells was measured by increased mean fluorescent intensity of cells incubated with peptide compared with that of cells incubated in medium alone.

[7] = Clinical chemistry and hematology analysis, WT1 dose titration study; assay type: in vivo; conditions: mice immunized with WT1 protein
Description: Special emphasis was put on evaluation of potential hematopoietic toxicity.

human cells = experiment: Cellular cytotoxicity of WT1-ubiquitin fusion expressed in human cells; assay type: cell-based; conditions: compared with native WT1
Description: The human ubiquitin open reading frame (SEQ ID NO:384) was mutated such that the nucleotides encoding the last amino acid encode an alanine instead of a glycine. […] The G->A mutation prevents co-translational cleavage of the […] protein by the proteases that normally process poly-ubiquitin during translation. The DNA and predicted amino acid sequence for the resulting construct are set forth in SEQ ID NOs:385 and 410, respectively. […] The resulting protein is predicted to be targeted to the proteosome by virtue of the added ubiquitin molecule.

With “rWT1-FL-TAT: full-length WT1 as TAT fusion” the “CD4-positive cells positive for intracellular IFN-gamma staining” value (CD4 cells of splenocytes; 20 μg s.c. weeks 0, 3 and 9, 6 hour stimulation with p32) was 0.10% and the “CD4+ cells with IFN-gamma staining” value (CD4 cells of splenocytes; 20 μg s.c., after the 8 day stimulation) was 0.24%.

For “p136-144: 9-mer class I MHC binding peptide; human or mouse form not stated at this place (SCLESQPAI; UniProt P19544 136-144, looked up, fragment)”, the “generation of peptide specific CTL following immunization” value (“generation” below) [1] was “CTL were generated”.

With QWAPVLDFAPPGASA [peptide 9] the “recognition by WT1 specific CD8+ T-cell clone (ELISPOT)” value (“recognition” below) [2] was “recognized”.

For LDFAPPGAS, the “staining of the WT1-specific CD8+ T cell clone by HLA-A2 tetramers incubated with an excess of the peptide” value (from here on “staining … of the peptide”) [3] was “did not stain the CD8+ T cell clone”.

For GATLKGVAAGSSSSVKWTE [p244-262], the “stimulation indices (SI), proliferative T cell response to the immunizing peptides” value ([4]; Vaccine A immunized mice, bulk lines, peptide 25 ug/ml, 96 hr (FIG. 6A)) was “No proliferative response”.

In the case of ALLPAVPSL, the “WT1 immunized animals with CTL responses to the peptide” value [5] is reported as 4 of 5 and the “generation” value [1] is reported as “peptide specific CTL lines were generated”.

In the case of NAPYLPSCL, the “binding to H-2^b class I molecules” value [6] is reported as “bind to H-2^b class I molecules”, the “lysis of targets incubated with 9-mer peptide by CTL generated by immunization with p117-139” value ([1]; EL-4 pulsed with peptide, E:T 25:1 (FIG. 13A)) is reported as “lysed targets” and the “peptide specific lysis after restimulation of the p117-139 specific CTL line with the 9-mer” value ([1]; FIGS. 13B and 13C) is reported as “demonstrated peptide specific lysis”. The “lysis of WT1 positive tumor cells by peptide specific CTL” value [1] was “showed lysis of a WT1 positive tumor cell line”.

With “WT1 protein: WT1 protein used for immunization in a multiple dose titration in mice” the “blood cell counts and blood chemistry (BUN, creatinine, bilirubin, albumin, globulin)” value [7] was “within the normal range”, the WT1-specific antibody response (MPL-SE as adjuvant, doses 25 μg, 100 μg to 1000 μg WT1 protein, female C57/B6 mice (FIG. 19)) was “strong WT1-specific antibody response” and the “cellular T-cell responses” value (MPL-SE as adjuvant, doses 25 μg, 100 μg to 1000 μg WT1 protein, female C57/B6 mice (FIG. 20)) was “cellular T-cell responses”. The “myeloid/erythroid ratio in sternum and femur marrow” value (mice immunized with WT1 protein) was “normal” and the “systemic histopathological or toxicological effects of immunization” value (mice, multiple dose titration) was “No systemic histopathological or toxicological effects”.

With NLYQMTSQL the “generation” value [1] was “not”.

For CMTWNQMNL, the “lysis of WT1 positive tumor cells by peptide specific CTL” value [1] was “failed to lyse cell lines that expressed WT1 proteins” and the “generation” value ([1]; listed as p235-243) was “peptide specific CTL lines were generated”.

In the case of VRRVSGVAPTLVRS [Peptide P299-313], the “stimulation index (SI), proliferative T cell response” value [4] is reported as 3.3.

With VLDFAPPGA the “recognition” value [2] was “specifically recognized” and the “staining … of the peptide” value [3] was “specifically stained the CD8+ T cell clone”.

In the case of VLDFAPPGASAYGSL [peptide 10], the “recognition” value [2] is reported as “recognized”.

With VLDFAPPGAS the “recognition” value [2] was “specifically recognized”.

In the case of RDLNALLPAVPSLGGGG [p6-22], the “stimulation index (SI), proliferative T cell response” value [4] is reported as 2.3.

With “WT1-Ubiquitin fusion: mutated (G->A) human ubiquitin fused upstream of a splice variant of human WT1” the “cellular cytotoxicity when expressed in human cells” value (human cells) was “decreased cellular cytotoxicity”.

For “WT1 p39-47: irrelevant HLA-A2 peptide used as tetramer control (DFAPPGASA; UniProt P19544 39-47, looked up, fragment)”, the “staining … of the peptide” value [3] was “did not stain the CD8+ T cell clone”.

In the case of SCLESQPAI, the “generation” value [1] is reported as “peptide specific CTL lines were generated”.
